Laboratory results: US12605424B2 (priority 2019, dated 2026)
Like-named read-outs stand apart in the source and are kept apart here.

Columns and labels:
[1] = tested on: Br2 (600/30) exposed neonatal mice; conditions: mouse, in vivo
[2] = tested on: human bronchial epithelial cells (HBECs); type: cell-based
[3] = tested on: C57BL/6 mice exposed to Br2 gas; conditions: mouse, in vivo
[4] = tested on: C57BL/6 mice exposed to Cl2, Br2 or COCl2; conditions: mouse, in vivo
[5] = tested on: Neonatal mice exposed to Cl2; conditions: mouse, in vivo
[6] = tested on: P. aeruginosa (strain PAK); conditions: mouse, in vivo
P aeruginosa = type: cell-based, mouse
[7] = tested on: C57BL/6 mice exposed to COCl2; conditions: mouse, in vivo
[8] = tested on: Mice having sickle cell disease exposed to chlorine; conditions: mouse, in vivo
[9] = tested on: C57bl/6 mice exposed to Br2; conditions: mouse, in vivo
[10] = mouse, in vivo
[11] = mouse, in vivo; remark: listed apart in the source
[12] = mouse, in vivo; cited from earlier work
ENaC = ENaC (Homo sapiens, UniProt P37088+P51168+P51170); type: cell-based
ENaC, sequence (P51168 whole entry): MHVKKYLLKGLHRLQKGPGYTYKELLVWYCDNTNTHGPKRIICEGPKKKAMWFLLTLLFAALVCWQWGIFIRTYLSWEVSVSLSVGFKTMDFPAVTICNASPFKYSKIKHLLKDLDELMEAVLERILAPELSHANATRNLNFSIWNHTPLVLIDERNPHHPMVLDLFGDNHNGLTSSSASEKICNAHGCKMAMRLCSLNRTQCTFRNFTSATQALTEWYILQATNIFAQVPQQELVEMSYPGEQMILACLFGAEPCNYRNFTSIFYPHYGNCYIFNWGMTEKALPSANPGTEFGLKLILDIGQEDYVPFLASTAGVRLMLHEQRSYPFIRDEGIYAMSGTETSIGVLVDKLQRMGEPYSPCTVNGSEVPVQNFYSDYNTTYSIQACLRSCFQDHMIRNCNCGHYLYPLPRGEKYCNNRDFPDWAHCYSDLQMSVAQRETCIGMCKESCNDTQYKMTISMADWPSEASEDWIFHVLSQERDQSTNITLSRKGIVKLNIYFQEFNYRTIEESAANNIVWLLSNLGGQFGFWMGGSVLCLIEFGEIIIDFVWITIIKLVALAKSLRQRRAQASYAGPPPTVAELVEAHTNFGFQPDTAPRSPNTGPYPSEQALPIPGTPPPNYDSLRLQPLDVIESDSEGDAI
ENaC, sequence (P51170 whole entry): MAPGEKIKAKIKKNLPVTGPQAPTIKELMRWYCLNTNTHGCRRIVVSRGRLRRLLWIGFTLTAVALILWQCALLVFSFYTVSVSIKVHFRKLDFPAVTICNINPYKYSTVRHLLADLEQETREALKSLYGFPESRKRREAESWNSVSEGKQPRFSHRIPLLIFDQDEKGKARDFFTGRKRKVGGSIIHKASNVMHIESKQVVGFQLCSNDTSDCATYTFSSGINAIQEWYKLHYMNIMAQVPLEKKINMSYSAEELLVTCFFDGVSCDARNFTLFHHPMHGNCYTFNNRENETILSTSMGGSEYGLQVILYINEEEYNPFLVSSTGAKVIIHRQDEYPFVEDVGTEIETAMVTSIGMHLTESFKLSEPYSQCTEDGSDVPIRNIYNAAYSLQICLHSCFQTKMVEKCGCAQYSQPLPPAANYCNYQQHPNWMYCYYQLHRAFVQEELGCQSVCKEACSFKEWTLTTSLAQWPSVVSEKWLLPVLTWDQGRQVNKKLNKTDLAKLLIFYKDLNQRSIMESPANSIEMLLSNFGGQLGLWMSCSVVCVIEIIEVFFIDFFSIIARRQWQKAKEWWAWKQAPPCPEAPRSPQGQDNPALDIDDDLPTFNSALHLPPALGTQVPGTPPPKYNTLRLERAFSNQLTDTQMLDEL
ENaC, sequence (P37088 whole entry): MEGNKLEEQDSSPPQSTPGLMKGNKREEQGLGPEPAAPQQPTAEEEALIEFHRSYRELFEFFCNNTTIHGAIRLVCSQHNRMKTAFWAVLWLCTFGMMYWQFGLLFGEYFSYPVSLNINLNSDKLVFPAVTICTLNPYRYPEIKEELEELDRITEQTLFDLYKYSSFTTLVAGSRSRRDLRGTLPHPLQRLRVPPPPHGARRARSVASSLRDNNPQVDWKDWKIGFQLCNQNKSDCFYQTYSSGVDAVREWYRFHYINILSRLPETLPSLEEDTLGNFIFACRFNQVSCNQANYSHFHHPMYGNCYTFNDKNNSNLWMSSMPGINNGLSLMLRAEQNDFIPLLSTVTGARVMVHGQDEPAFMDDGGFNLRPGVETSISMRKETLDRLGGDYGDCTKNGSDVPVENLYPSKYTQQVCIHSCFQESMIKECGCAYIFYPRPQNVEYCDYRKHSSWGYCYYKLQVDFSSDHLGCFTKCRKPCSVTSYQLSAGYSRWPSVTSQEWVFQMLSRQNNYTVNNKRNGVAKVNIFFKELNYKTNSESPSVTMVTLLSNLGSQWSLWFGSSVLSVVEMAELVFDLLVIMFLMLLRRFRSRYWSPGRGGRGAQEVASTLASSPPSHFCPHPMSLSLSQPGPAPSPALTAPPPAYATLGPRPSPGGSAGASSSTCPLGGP

CFTR = CFTR (Homo sapiens, UniProt P13569); type: cell-based
Na^+/K^+-ATPase = type: cell-based, human
α, β, γ-hENaC = α, β, γ-hENaC (Homo sapiens, UniProt P37088+P51168+P51170); type: cell-based
α, β, γ-hENaC, sequence (P51168 whole entry): as the sequence (P51168 whole entry) above
α, β, γ-hENaC, sequence (P51170 whole entry): as the sequence (P51170 whole entry) above
α, β, γ-hENaC, sequence (P37088 whole entry): as the sequence (P37088 whole entry) above

[13] = target: 4 pS amiloride-sensitive highly Na^+ selective channel (ENaC) (Mus musculus, UniProt Q61180+Q9WU38+Q9WU39); type: cell-based
4 pS amiloride-sensitive highly Na^+ selective channel (ENaC), sequence (Q9WU38 whole entry): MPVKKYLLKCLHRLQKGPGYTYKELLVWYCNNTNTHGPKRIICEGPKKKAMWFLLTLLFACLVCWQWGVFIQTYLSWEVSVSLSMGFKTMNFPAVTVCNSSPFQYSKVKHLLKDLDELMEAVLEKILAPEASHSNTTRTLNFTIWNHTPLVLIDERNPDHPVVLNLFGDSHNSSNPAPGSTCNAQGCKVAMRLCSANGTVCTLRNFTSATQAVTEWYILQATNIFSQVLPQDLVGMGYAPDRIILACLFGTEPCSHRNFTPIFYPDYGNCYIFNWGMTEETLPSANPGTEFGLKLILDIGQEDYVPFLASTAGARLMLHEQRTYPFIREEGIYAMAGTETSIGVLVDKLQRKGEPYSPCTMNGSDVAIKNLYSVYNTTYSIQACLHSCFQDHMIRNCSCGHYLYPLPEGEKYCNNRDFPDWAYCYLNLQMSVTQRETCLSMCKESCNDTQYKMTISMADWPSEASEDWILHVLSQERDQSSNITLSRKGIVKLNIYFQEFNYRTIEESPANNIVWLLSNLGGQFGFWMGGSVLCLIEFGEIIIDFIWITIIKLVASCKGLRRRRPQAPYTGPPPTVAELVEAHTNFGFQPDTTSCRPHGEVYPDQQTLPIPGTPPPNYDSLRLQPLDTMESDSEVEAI
4 pS amiloride-sensitive highly Na^+ selective channel (ENaC), sequence (Q9WU39 whole entry): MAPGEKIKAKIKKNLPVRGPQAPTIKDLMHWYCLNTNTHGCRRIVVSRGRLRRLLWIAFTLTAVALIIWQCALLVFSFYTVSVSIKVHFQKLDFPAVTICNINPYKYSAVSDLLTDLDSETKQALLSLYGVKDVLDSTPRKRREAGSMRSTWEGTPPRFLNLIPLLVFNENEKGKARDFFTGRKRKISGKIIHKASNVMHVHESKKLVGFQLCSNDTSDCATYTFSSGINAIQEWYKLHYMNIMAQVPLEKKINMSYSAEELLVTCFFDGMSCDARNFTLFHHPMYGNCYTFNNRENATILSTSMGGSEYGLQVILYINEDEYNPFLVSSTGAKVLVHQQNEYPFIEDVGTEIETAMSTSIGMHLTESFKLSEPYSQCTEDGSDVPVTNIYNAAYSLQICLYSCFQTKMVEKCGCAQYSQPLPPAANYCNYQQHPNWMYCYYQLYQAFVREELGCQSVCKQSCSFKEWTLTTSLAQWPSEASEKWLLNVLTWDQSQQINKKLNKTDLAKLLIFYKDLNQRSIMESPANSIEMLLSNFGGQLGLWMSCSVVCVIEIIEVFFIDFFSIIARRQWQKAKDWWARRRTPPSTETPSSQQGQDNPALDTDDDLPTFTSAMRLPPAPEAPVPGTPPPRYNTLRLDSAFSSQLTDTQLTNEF
4 pS amiloride-sensitive highly Na^+ selective channel (ENaC), sequence (Q61180 whole entry): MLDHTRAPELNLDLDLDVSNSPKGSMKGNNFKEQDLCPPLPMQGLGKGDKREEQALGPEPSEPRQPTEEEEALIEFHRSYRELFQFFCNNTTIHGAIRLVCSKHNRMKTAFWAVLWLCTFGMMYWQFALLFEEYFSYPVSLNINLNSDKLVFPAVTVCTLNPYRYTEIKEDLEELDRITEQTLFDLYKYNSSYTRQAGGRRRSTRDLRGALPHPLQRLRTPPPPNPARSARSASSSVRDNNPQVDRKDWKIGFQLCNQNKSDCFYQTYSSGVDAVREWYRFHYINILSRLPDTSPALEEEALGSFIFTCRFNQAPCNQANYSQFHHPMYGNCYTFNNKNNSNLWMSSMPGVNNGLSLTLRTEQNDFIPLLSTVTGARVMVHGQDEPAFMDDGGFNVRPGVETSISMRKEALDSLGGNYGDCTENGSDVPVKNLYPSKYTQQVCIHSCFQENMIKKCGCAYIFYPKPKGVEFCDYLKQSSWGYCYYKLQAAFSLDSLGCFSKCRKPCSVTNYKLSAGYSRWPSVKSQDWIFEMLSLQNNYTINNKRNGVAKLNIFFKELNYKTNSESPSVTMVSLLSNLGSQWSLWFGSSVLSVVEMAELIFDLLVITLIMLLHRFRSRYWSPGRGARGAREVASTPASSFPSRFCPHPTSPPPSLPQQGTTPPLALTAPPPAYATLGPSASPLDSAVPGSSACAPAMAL

[14] = tested on: 16 pS non-selective cation channel; type: cell-based, mouse; conditions: read-out: IC50, decrease of open probability of 16 pS channel

Question: Which mortality [1] does the source give for OCC1OC([S][Au])C(O)C(O)C1O [ATG, gold(1+);(3R,4S,5S,6R)-3,4,5-trihydroxy-6-(hydroxymethyl) oxane-2-thiolate, reference compound] here?
Answer: The mortality was “not effective”.

Question: And the systemic hypoxia [1]?
Answer: Its systemic hypoxia is “not effective”.

Question: For BrBr [Br2, bromine], which “ER stress marker ATF4” value [2] is on record?
Answer: The value was “increased”.

Question: And the “ER stress marker CHOP” value [2]?
Answer: Its value is “remained unaltered”.

Question: For O=C(/C=C/c1ccccc1)NC(NC(=S)Nc1cccc2cccnc12)C(Cl)(Cl)Cl (stereo not drawn) [salubrinal, (2E)-3-Phenyl-N-[2,2,2-trichloro-1-[[(8-quinolinylamino)thioxomethyl]amino]ethyl]2-propenamide, reference compound], which BALF elastase activity [3] is on record?
Answer: Its BALF elastase activity is “attenuated”.

Question: What about the BALF protein levels [3] of the same compound?
Answer: The BALF protein levels was “ameliorated”.

Question: What about the “BALF total cell count” value [3] of the same compound?
Answer: Its value is “ameliorated”.

Question: What about the “Masson's trichrome staining of lungs (collagen, fibrotic changes)” value [3] of the same compound?
Answer: The value was “decreased collagen levels and lung fibrotic changes”.

Question: What about the “alveolar mean linear intercept (Lm)” value [3] of the same compound?
Answer: Its value is “attenuated”.

Question: And the “lung CHOP levels (immunoblot)” value [3]?
Answer: Its value is “decrease”.

Question: And the lung hydroxyproline levels [3]?
Answer: The lung hydroxyproline levels was “decreased collagen levels”.

Question: What about the “lung phosphorylated eIF2α (immunoblot)” value [3] of the same compound?
Answer: The value was “significant increase”.

Question: What about the “lung volumes (PV curve), lung compliance and inspiratory capacity” value [3] of the same compound?
Answer: Its value is “prevented Br2-induced increase”.

Question: And the plasma elastase levels [3]?
Answer: The plasma elastase levels was “attenuated”.

Question: For Hemopexin [Hpx], which “ATF4 and CHOP, immunohistochemical staining of lung sections” value ([3]; ip) is on record?
Answer: Its value is “attenuated ATF4 and CHOP levels around airways and completely abrogated the ER stress markers in the lung parenchyma”.

Question: What about the BALF elastase activity ([3]; ip) of the same compound?
Answer: The BALF elastase activity was “lower”.

Question: And the BALF protein levels ([3]; ip)?
Answer: Its BALF protein levels is “significantly reduced”.

Question: And the “BALF total cell count” value ([3]; ip)?
Answer: Its value is “significantly reduced”.

Question: What about the “PV curve, lung compliance and inspiratory capacity” value ([3]; ip) of the same compound?
Answer: Its value is “prevented the shifting of the PV curve”.

Question: What about the “alveolar Lm” value ([3]; ip) of the same compound?
Answer: The value was “reduced”.

Question: And the “lung ATF4 (immunoblot)” value ([3]; ip)?
Answer: The value was “low levels”.

Question: And the “lung CHOP (immunoblot)” value ([3]; ip)?
Answer: The value was “low levels”.

Question: What about the “lung collagen levels on Masson's trichrome staining” value ([3]; ip) of the same compound?
Answer: Its value is “significantly reduced”.

Question: And the lung hydroxyproline levels ([3]; ip)?
Answer: The lung hydroxyproline levels was “significantly reduced”.

Question: And the “overall mortality (Kaplan-Meier)” value ([3]; ip)?
Answer: Its value is “reduced overall mortality”.

Question: What about the plasma elastase levels ([3]; ip) of the same compound?
Answer: Its plasma elastase levels is “lower”.

Question: What about the plasma heme ([3]; ip) of the same compound?
Answer: The plasma heme was “reduced”.

Question: And the BALF heme [4]?
Answer: Its BALF heme is “attenuated”.

Question: And the “BALF inflammatory cell count” value [4]?
Answer: The value was “attenuated”.

Question: And the BALF protein levels [4]?
Answer: Its BALF protein levels is “reduced”.

Question: And the BALF proteins [4]?
Answer: The BALF proteins was “attenuated”.

Question: And the “mortality (Kaplan-Meier)” value [4]?
Answer: The value was “reduced mortality”.

Question: What about the “apical cytoplasm of the bronchial epithelium (histology)” value [5] of the same compound?
Answer: Its value is “exhibited some improvement”.

Question: What about the “cellularity of alveolar septae (histology)” value [5] of the same compound?
Answer: Its value is “exhibited some recovery”.

Question: And the “mean linear intercept (MLI)” value [5]?
Answer: The value was “decreased MLI”.

Question: And the survival [5]?
Answer: The survival was “improved survival”.

Question: And the mortality [1]?
Answer: Its mortality is “not effective”.

Question: What about the systemic hypoxia [1] of the same compound?
Answer: The systemic hypoxia was “not effective”.

Question: And the “bacterial colonies from lung homogenates on agar plates” value [6]?
Answer: The value was “grew fewer bacterial colonies”.

Question: What about the survival [6] of the same compound?
Answer: The survival was “improved survival”.

Question: What about the “bactericidal function of neutrophils (bacterial colonies on agar)” value (P aeruginosa) of the same compound?
Answer: The value was “improved neutrophil function”.

Question: And the BALF protein levels [7]?
Answer: The BALF protein levels was “reduced BALF protein levels”.

Question: What about the probability of survival [8] of the same compound?
Answer: The probability of survival was “higher probability of survival”.

Question: And the “survival (Kaplan Meier)” value [9]?
Answer: Its value is “improved survival”.

Question: What about the “time plasma level is maintained / remains stable” value [10] of the same compound?
Answer: The value was “at least 24 h”.

Question: And the “plasma bioavailability (plasma concentration)” value ([10]; im)?
Answer: The value was “about 25 μg/ml”.

Question: What about the “plasma [IgM] relative to control” value [11] of the same compound?
Answer: Its value is no more than 8%.

Question: And the serum half-life [12]?
Answer: The serum half-life was “approximately 7 days”.

Question: Which “ER stress marker ATF4” value [2] does the source give for ferric chloride heme here?
Answer: Its value is “increased”.

Question: What about the “ER stress marker CHOP” value [2] of the same compound?
Answer: Its value is “increased”.

Question: What about the ENaC activity (ENaC) of the same compound?
Answer: Its ENaC activity is “totally inhibited”.

Question: What about the transepithelial resistance (ENaC) of the same compound?
Answer: Its transepithelial resistance is “above 1500 Ohms*cm^2”.

Question: What about the EC50 (ENaC; read-out: EC50, inhibition of trans-epithelial Na^+ transport across human airway cells) of the same compound?
Answer: The EC50 was 500 nM.

Question: And the IC50 (ENaC; read-out: IC50, inhibition of amiloride-sensitive ENaC short circuit current)?
Answer: Its IC50 is roughly 500 nM.

Question: What about the “forskolin-stimulated, GlyH-101-inhibited CFTR currents” value (CFTR) of the same compound?
Answer: The value was “inhibited amiloride-sensitive, ENaC, but not forskolin-stimulated, GlyH-101-inhibited, CFTR, currents”.

Question: What about the “Na^+/K^+-ATPase function (ouabain-sensitive current)” value (Na^+/K^+-ATPase) of the same compound?
Answer: The value was “did not impair”.

Question: What about the “Na^+ current (whole cell)” value (α, β, γ-hENaC) of the same compound?
Answer: The value was “inhibited”.

Question: What about the “inhibition of whole-cell Na^+ current” value (α, β, γ-hENaC; 1 µM) of the same compound?
Answer: Its value is 80%.

Question: And the EC50 ([13]; read-out: EC50, inhibition of ENaC and cation Na^+ channels in mouse alveolar cells)?
Answer: Its EC50 is 125 nM.

Question: And the IC50 ([13]; read-out: IC50, decrease of open probability of 4 pS channel)?
Answer: The IC50 was 125 nM.

Question: What about the IC50 [14] of the same compound?
Answer: Its IC50 is 125 nM.

Question: For “heme-Hpx complex: complex of heme with hemopexin”, which serum half-life [12] is on record?
Answer: The serum half-life was “approximately 7 h”.

Question: With nitrite [reference compound] as the compound, how does the “survival (Kaplan Meier)” value [9] read?
Answer: The value was “improved survival early”.
